Experiments:
normal skin tissue = test: Cell viability (CCK-8) cytotoxicity on normal skin tissue cells; assay type: cell-based; details: overnight
Protocol: We sought to determine the optimal concentration of the drug Bentamapimod identified above that would not affect the cytotoxicity of the drug. To determine the final concentration of the drug, normal skin tissue was seeded as cells in […] 96-well plates using 5% (v/v) RPMI1640 medium (LONZA) and 1% penicillin/streptomycin medium and treated with bentamapimod at concentrations of 1 μM, 10 μM, 50 μM, 100 μM, and 200 μM, respectively, and incubated overnight in a 37° C. incubator. Then, 10 μl of Cell Counting Kit-8 drug (Dojindo Lot. PR863) was seeded into 96-well plates and the absorbance was measured at […] after 2 h.

skin-specific T cells [1] = test: Flow cytometry of skin T cells from atopic dermatitis patient skin after drug application; assay type: cell-based, human; details: immune cell fractions from skin tissue of atopic dermatitis patients
Protocol: To test the effect of the candidate drug on skin-specific T cells in human skin tissue, a single suspension was prepared using skin from a patient with atopic dermatitis. T cells were stained using anti-CD3, anti-CD4, anti-CD8, and anti-CD45 antibodies, and flow cytometry was performed on skin T cells using the skin TRM markers CD69 and CD103 to observe changes in the number and distribution of skin-specific T cells in response to drug application.

[2] = system: atopic dermatitis-induced flaky tail mice; test: Acute wiping (pain) and scratching (itching) behavior after drug application; assay type: in vivo, mouse
Excerpt: The existing drug dexamethasone is widely used as a treatment for atopic dermatitis, but long-term use causes various local side effects such as skin atrophy, dilated skin capillaries, and hypopigmented spots. Tacrolimus, which was developed to minimize these long-term local side effects, solved the problem of long-term and permanent local side effects of steroid drugs, but short-term skin irritation symptoms are emerging as a new problem, as it is known that about 50% of patients experience burning and skin rash at the beginning of application. Therefore, it is necessary to overcome the skin irritation side effects, and we wanted to check whether the newly discovered drug of bentamapimod can resolve the above side effects while maintaining the effectiveness of the animal drug through behavioral analysis of pain and itching using Flaky Tail mice. Wiping the face with the forelegs was interpreted as a behavioral measure of pain in mice, and scratching with the hind legs was interpreted as a behavioral measure of itching (J Vis Exp. 2019 Sep. 27; (151)). […] Flaky tail mice were treated with 200 μL of the test agent per group for one week to facilitate comparison, and the number of itches and pain behaviors were quantified and graphed (see FIG. 8a and FIG. 8b).

skin-specific T cells [3] = test: Flow cytometry of T cell fractions in skin of atopic dermatitis mouse model; assay type: in vivo; details: 4 weeks
Protocol: (§1) To test the effect of the newly discovered bentamapimod drugs on skin-specific T cells, flaky tail mice were induced with atopic skin lesions using HDM three times a week until week 4 of the experiment as described in the Preparations and Examples above, and then treated with each drug at different concentrations for another 4 weeks. To determine changes in skin-specific T cells in each animal, single suspensions were then prepared from spleen, skin, and lymph nodes, and T cells were stained with anti-CD3, anti-CD4, anti-CD8, and anti-CD45 antibodies. Flow cytometric analysis of skin-specific T cells was performed using anti-CD69 and anti-CD103 antibodies to observe changes in the number and distribution of skin-specific T cells in response to drug application.

[4] = system: atopic dermatitis-induced flaky tail mice; test: Treatment effect in HDM-induced atopic dermatitis mouse model (clinical photograph, dermatitis score); assay type: in vivo; details: 50 μM or 100 μM, 200 μL on back, 4 weeks
Protocol: The backs of the mice were shaved and exfoliated with a 4% diluted sodium dodecyl sulfate solution (SIGMA Lot #BCCD5615) once every 3 days to remove dead skin cells, and House Dust Mite (HDM), a typical trigger/exacerbator of atopic dermatitis, was topically applied to the mice to induce atopic skin lesions. The house dust mite ointment used was Atopic dermatitis challenging ointment from Biostir (Osaka, Japan), and atopic dermatitis-induced mice were prepared as described above (see FIG. 1).
In order to determine whether the bentamapimod drug discovered above has a therapeutic effect on atopic dermatitis, experiments were conducted using the mouse model prepared in the preliminary example and divided into control and experimental groups according to the timeline diagram shown in FIG. 4. […] To further verify the treatment effect, the flaky tail Mice dermatitis score of the atopic dermatitis mouse model according to the drug treatment was calculated by Wilcoxon-signed rank test and shown in FIG. 6. […]

flaky tail mice = test: Chronic itch behavior before and after application of test drug; assay type: in vivo, mouse; details: drug 3 times a week for 4 weeks after 4 weeks HDM; before vs after application
Protocol: Additional experiments were performed to compare the ITCH behavior before and after application of the dexamethasone, tacrolimus, and bentamapimod agents disclosed above. Specifically, atopic dermatitis was induced by applying 100 mg of HDM ointment to the backs of flaky tail mice for 4 weeks, after which drug treatments were applied 3 times a week for 4 weeks, and the chronic itch behavior before and after application of these test drugs was quantified and graphed (see FIG. 9a and FIG. 9b).

[5] = system: T cells in skin-draining lymph nodes; test: FACS of T cell fractions in skin-draining lymph nodes of atopic dermatitis mouse model; assay type: in vivo
Protocol: as §1

[6] = at the beginning of application; cited from earlier work

## N#CC(c1ccnc(OCc2ccc(CN3CCOCC3)cc2)n1)c1nc2ccccc2s1 (stereo not drawn) [bentamapimod, α-[2-[[4-(4-morpholinylmethyl)phenyl]methoxy]-4-pyrimidinyl]-2-benzothiazoleacetonitrile]
Normal skin tissue; 50 μM
  cell viability: greater than 90%
Normal skin tissue; 100 μM
  cell viability: greater than 90%
skin-specific T cells [1]; 50 μM
  percentage of skin-specific T cells: significant dose-dependent decrease
skin-specific T cells [1]; 100 μM
  percentage of skin-specific T cells: significant dose-dependent decrease
[2]; 50 μM and 100 μM
  local irritation symptoms such as itching and pain: did not cause local irritation symptoms
[2]; 50 μM, 200 μL on back
  number of scratching and wiping behaviors versus control D.W group: no difference
[2]; 100 μM, 200 μL on back
  number of scratching and wiping behaviors versus control D.W group: no difference
skin-specific T cells [3]; 50 μM
  percentage of CD3+, CD4+ T cells in the skin: significantly reduced in a dose-dependent manner
skin-specific T cells [3]; 100 μM
  percentage of CD3+, CD4+ T cells in the skin: significantly reduced in a dose-dependent manner
skin-specific T cells [3]; skin
  percentage of CD69+ T cells and CD103+ T cells (skin-resident T cells): significantly reduced
  percentage of skin-specific T cells compared to the control 0.1% dexamethasone group: significantly reduced
[4]; FIG. 6
  atopic dermatitis scores (Flaky tail Mice dermatitis score): equivalent to or better than those of conventional drugs
[4]; compared to conventional drugs, FIG. 5
  treatment effect on atopic dermatitis skin lesions (wounding, dryness, desquamation, erythema, hemorrhage, edema): clinically significant treatment effect
Flaky tail mice
  chronic scratching behavior, treatment effect: treatment effect was particularly significant
[5]; 100 μM
  CD3+ T cells in skin-draining lymph nodes: statistically significantly lower
[5]; 100 μM, skin-draining lymph nodes
  CD3+ CD4+ CD69+ CD103+ T cells: statistically significantly lower
[5]; skin-draining lymph nodes
  fraction of T cells expressing CD69 among CD3+ CD4+ T cells: reduced
  percentage of T cells compared to the 0.1% dexamethasone group: significantly reduced

## C=CC[C@@H]1/C=C(\C)C[C@H](C)C[C@H](OC)[C@H]2O[C@@](O)(C(=O)C(=O)N3CCCC[C@H]3C(=O)O[C@H](/C(C)=C/[C@@H]3CC[C@@H](O)[C@H](OC)C3)[C@H](C)[C@@H](O)CC1=O)[C@H](C)C[C@@H]2OC [tacrolimus]
[2]; 0.1% concentration, 200 μL on back
  time at which wiping behaviors peaked: 30 min
[2]; 0.1% concentration, 200 μL on back, in 30 minutes
  number of scratching behaviors: 17 times
[6]
  patients who experience burning and skin rash: about 50%

Reference: US20250319094A1, “COMPOSITION FOR PREVENTING OR TREATING ATOPIC DERMATITIS” (Yonsei University BioHealth Technology Holdings, Inc., priority 2022, published 2025)
